Reference: patent US20030121068A1, “Vector encoding suicide and marker constructs” (priority 2001, published 2003)

Experiments:
[1] = Adverse effects of 5-FC injections in mice; type: in vivo, NOD/Scid mice; conditions: 400 mg/kg, day 5 through 19, control mice injected with saline
Experimental: In order to determine whether genetically engineered CEM cells could be effectively eradicated in vivo, NOD/Scid mice were utilized. After being exposed to 150 rads of radiation on day 1, four groups of mice were injected with saline (control) or 5×10^6 engineered cells on day 2. The remaining three groups included non-CD containing group (LNGFRSN), E. coli fusion construct containing group (LNGCDeSN) and the Saccharomyces fusion construct-containing group (LNGCDsSN). The genetically engineered cells were suspended in PBS at a 5×10^6 cells/0.5 ml and injected via the tail vein. Commencing day 5 though day 19, the mice were injected with 5-FC (Sigma, cat no. F-7129, lot no. 110K4012) at 400 mg/kg using a stock solution of 12.5 mg/ml, prepared in normal saline. After two weeks of 5-FC treatment, the mice were followed to assess mortality within each group. A Kaplan Meyer analysis was performed to determine the effect of 5-FC treatment for each group. The experiment was continued for 100 days after initiation.
As expected, control mice injected with saline survived the duration of the experiment. […] This group serves as a second control against mice injected with CD containing fusion constructs. […]

[2] = system: NIH 3T3 and CEM cells; test: MTS cytotoxicity assay of transduced cells in 5-FC; type: cell-based, murine fibroblasts (NIH 3T3); human T cells (CEM); conditions: untransduced NIH 3T3 and CEM cells
Experimental: CD function was tested by cytotoxicity assays in which transduced cells are exposed to various concentrations of 5-FC in 96 well plates. Assays were initiated using 500 cells/well of NIH cells or 10,000 cells/well of CEM cells placed in culture with semi-log increasing concentrations of 5-FC for a period of 5 days. An MTS (Promega, Cell Titre 96; cat no. G5430, GI 11) colorimetric assay (based on the conversion of a tetrazolium dye to formazan) was utilized to quantitate the concentration of viable cells on day 5. The absorbance of UV light at a wavelength of 565 nm at a given concentration of 5-FC was used to calculate the LD50 using a μQuant plate reader (Bio Tek Instruments Inc.). The fusion constructs were tested alongside controls containing only the NGFR and the CD constructs.
We tested to determine if the CD construct remained functional in the fusion protein. Cells were incubated with varying concentrations of 5-FC in 96-well plates. After 5 days, MTS reagent was added as per manufacturers recommendations. The reaction involves a color change based on the number of viable cells as the tetrazolium dye changes to formazan. Absorption of UV light at 565 nm can then be used to assess viability (shown in FIG. 3 as percentage of viable cells). Untransduced cells are resistant to the effects of 5-FC. […]

Nc1nc(=O)[nH]cc1F [5-FC, 5-fluorocytosine]
adverse effects of 5-FC injections [1]: No adverse effects | effect of 5-FC on untransduced cells [2]: resistant
